Test results as given in ChEMBL document CHEMBL1201862, “PubChem BioAssay data set” (2004).
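The compound was tested at five concentrations on cells cultured in 96-well plates, with a 48-hour exposure period. Here, GI50 denotes the concentration required for 50% inhibition of growth.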 Activity calls are given as the source filed them. Rule as the data show it: active = GI50 up to about 1.1 µM and inactive = higher.

What was measured:
Assay in all cases: NCI-60 cell line screen, 48 h
HCT-116 = tested on: HCT-116
M14 = tested on: M14
A498 = tested on: A498
UO-31 = tested on: UO-31
OVCAR-3 = tested on: OVCAR-3
OVCAR-8 = tested on: OVCAR-8
HT-29 = tested on: HT-29
MDA-MB-435 = tested on: MDA-MB-435
K562 = tested on: K562
IGROV-1 = tested on: IGROV-1
BT-549 = tested on: BT-549
RPMI-8226 = tested on: RPMI-8226
LOX IMVI = tested on: LOX IMVI
NCI-H23 = tested on: NCI-H23
SK-MEL-2 = tested on: SK-MEL-2
T47D = tested on: T47D
SK-OV-3 = tested on: SK-OV-3
HCT-15 = tested on: HCT-15
786-0 = tested on: 786-0

SMILES | GI50 (HCT-116) | GI50 (M14) | GI50 (A498) | GI50 (UO-31) | GI50 (OVCAR-3) | GI50 (OVCAR-8) | GI50 (HT-29) | GI50 (MDA-MB-435) | GI50 (K562) | GI50 (IGROV-1) | GI50 (BT-549) | GI50 (RPMI-8226) | GI50 (LOX IMVI) | GI50 (NCI-H23) | GI50 (SK-MEL-2) | GI50 (T47D) | GI50 (SK-OV-3) | GI50 (HCT-15) [µM] | GI50 (786-0)
Cc1ccc(/C=N/NS(=O)(=O)c2ccc(/C=C3\NC(=O)NC3=O)cc2)cc1 | > 100 µM (inactive) | > 100 µM (inactive) | > 100 µM (inactive) | > 100 µM (inactive) | > 100 µM (inactive) | 37.8 µM (inactive) | > 100 µM (inactive) | > 100 µM (inactive) | > 100 µM (inactive) | 87.9 µM (inactive) | > 100 µM (inactive) | > 100 µM (inactive) | > 100 µM (inactive) | > 100 µM (inactive) | > 100 µM (inactive) | > 100 µM (inactive) | > 100 µM (inactive) | > 100 | 61.1 µM (inactive)
COc1ccc(OC/C(N)=N/NC(=O)c2ccncc2)cc1 | > 100 µM (inactive) | > 100 µM (inactive) | > 100 µM (inactive) |  | > 100 µM (inactive) | > 100 µM (inactive) | > 100 µM (inactive) | > 100 µM (inactive) | > 100 µM (inactive) | > 100 µM (inactive) | > 100 µM (inactive) | > 100 µM (inactive) | > 100 µM (inactive) | > 100 µM (inactive) | > 100 µM (inactive) | > 100 µM (inactive) | > 100 µM (inactive) | > 100 | > 100 µM (inactive)
COc1ccccc1CCN1CCN(CCCc2ccccc2)CC1 | 33 µM (inactive) | 24.2 µM (inactive) | 70.8 µM (inactive) | 46.3 µM (inactive) | > 100 µM (inactive) | > 100 µM (inactive) | 28.8 µM (inactive) | 85.5 µM (inactive) | 34.5 µM (inactive) | > 100 µM (inactive) | > 100 µM (inactive) | 39.4 µM (inactive) | 64.6 µM (inactive) |  | > 100 µM (inactive) | 55.3 µM (inactive) | > 100 µM (inactive) | 42.6 | 45.6 µM (inactive)
N=C(N)Nc1ccc(CC(N)C(=O)NCC(=O)C(CC(=O)O)c2ncc(NC(=O)C(F)(F)F)o2)cc1 (configuration not stated) | > 25 µM (inactive) | > 25 µM (inactive) | > 25 µM (inactive) | > 25 µM (inactive) | > 25 µM (inactive) | > 25 µM (inactive) | > 25 µM (inactive) | > 25 µM (inactive) |  | > 25 µM (inactive) | > 25 µM (inactive) | > 25 µM (inactive) | > 25 µM (inactive) | > 25 µM (inactive) | > 25 µM (inactive) | > 25 µM (inactive) | > 25 µM (inactive) | > 25 | > 25 µM (inactive)
O=C1NC(c2ccc3ccccc3c2)Nc2ccccc21 (configuration not stated) | 33.1 µM (inactive) | 35.9 µM (inactive) | 56 µM (inactive) | 64.9 µM (inactive) |  | 33.4 µM (inactive) | 24.8 µM (inactive) | 3.12 µM (inactive) | 2.54 µM (inactive) | 23.6 µM (inactive) | 5.26 µM (inactive) | 29.9 µM (inactive) | 58.7 µM (inactive) | 24.5 µM (inactive) | 35.9 µM (inactive) | 71.4 µM (inactive) | 53.5 µM (inactive) | 14.8 | 45.7 µM (inactive)
Nc1nc(Nc2ccc(Cl)cc2)sc1C(=O)c1cc2ccccc2oc1=O | 23.1 µM (inactive) | 68.9 µM (inactive) | 19.2 µM (inactive) | > 100 µM (inactive) | 4.84 µM (inactive) |  | 72.4 µM (inactive) | 23.7 µM (inactive) | 33.8 µM (inactive) | 56.6 µM (inactive) | 28 µM (inactive) | 29.4 µM (inactive) | 23.8 µM (inactive) | 2.93 µM (inactive) | 7.94 µM (inactive) | 27.7 µM (inactive) | 20.7 µM (inactive) | 34.5 | 19.5 µM (inactive)
Cc1ccc(C(=O)Nc2ccc(CP(=O)(O)O)cc2CP(=O)(O)O)cc1N | > 100 µM (inactive) | > 100 µM (inactive) | > 100 µM (inactive) | > 100 µM (inactive) | > 100 µM (inactive) | > 100 µM (inactive) | > 100 µM (inactive) | > 100 µM (inactive) | > 100 µM (inactive) | > 100 µM (inactive) | > 100 µM (inactive) | > 100 µM (inactive) | > 100 µM (inactive) | > 100 µM (inactive) | > 100 µM (inactive) | > 100 µM (inactive) | > 100 µM (inactive) | > 100 | > 100 µM (inactive)
O=C(CCc1cc(O)cc(O)c1)NCCc1ccc(O)c(O)c1 | > 100 µM (inactive) | > 100 µM (inactive) | > 100 µM (inactive) | > 100 µM (inactive) | > 100 µM (inactive) | > 100 µM (inactive) | > 100 µM (inactive) | 21.6 µM (inactive) | > 10 µM (inactive) | > 100 µM (inactive) | > 100 µM (inactive) | > 100 µM (inactive) | > 100 µM (inactive) | > 100 µM (inactive) | > 100 µM (inactive) | > 100 µM (inactive) | > 100 µM (inactive) | > 100 | > 100 µM (inactive)
